EP0166969A2, “Haemostyptic” (priority 1984, dated 1986)
“Also recorded” adds a separate entry of the source.

What was measured:
[1] = system: Schweineleber; assay: Comparative haemostyptic efficacy of components, mixtures and esters in rat models and pig liver; assay type: in vivo, Ratten; conditions: qualitative
Description: Unter einem Hämostypticum versteht man Mittel zur Blutstillung, die sowohl die Blutungszeit als auch den Blutverlust bei mechanischen Verletzungen herabsetzen. Die Blutgerinnung ist ein in den letzten Jahren intensiv untersuchter komplexer Vorgang, der sich in verschiedenster Weise beeinflussen läßt. Die Blutstillung und der Blutverlust hängen wiederum in erster Linie vom Umfang und der Geschwindigkeit der Blutgerinnung ab, jedoch spielen hier auch noch weitere Faktoren mit hinein, die bisher noch nicht ausreichend untersucht und geklärt werden konnten. Eine besondere Schwierigkeit bei der Untersuchung von Hämostyptica ist die Erarbeitung von zuverlässigen und reproduzierbaren Versuchsbedingungen am Menschen und am Tier. Eine umfassende Zusammenstellung der bisher bekannten Methoden sowie die Beschreibung einer verbesserten Methode an der Ratte wird beschrieben in der Dissertation von Ennen 1981, am Institut für Pharmakologie, Toxikologie und Pharmazie der Tierärtzlichen Hochschule Hannover unter Leitung von Prof. Dr. K. Kaemmerer (Methodenbeitrag zur Bestimmung von Blutungszeit und Blutverlust bei Leberparenchymblutungen kleiner Versuchstiere). Im Rahmen dieser Untersuchungen wurden auch verschiedene bekannte Hämostasesysteme vergleichend untersucht. Zu den untersuchten Produkten gehörte auch das Hämostypticum Revici, welches von der Anmelderin seit Jahren vertrieben wird. […] Das Hämostypticum Revici enthält neben geringen Mengen von Zitronensäure, Wasserstoffperoxid und n-Butanol. […] Dabei dienten als Modelle in erster Linie die bereits von Ennen entwickelten Tiermodelle der Ratten sowie ähnliche Versuche an der Schweineleber. Die Untersuchungen wurden zusätzlich ausgedehnt auf mögliche Metaboliten und Zersetzungsprodukte der Zitronensäure, nämlich Cis-Aconitsäure, Acetondicarbonsäure und Itakonsäure.

[2] = system: Rattenleber; assay: Bleeding time and blood loss in rats according to Ennen (1981), liver parenchymal bleeding; assay type: in vivo, Ratten; conditions: tested oral and IV, standard solutions suspended in 0,9% saline, route of the values not stated
Description: Unter einem Hämostypticum versteht man Mittel zur Blutstillung, die sowohl die Blutungszeit als auch den Blutverlust bei mechanischen Verletzungen herabsetzen. Die Blutgerinnung ist ein in den letzten Jahren intensiv untersuchter komplexer Vorgang, der sich in verschiedenster Weise beeinflussen läßt. Die Blutstillung und der Blutverlust hängen wiederum in erster Linie vom Umfang und der Geschwindigkeit der Blutgerinnung ab, jedoch spielen hier auch noch weitere Faktoren mit hinein, die bisher noch nicht ausreichend untersucht und geklärt werden konnten. Eine besondere Schwierigkeit bei der Untersuchung von Hämostyptica ist die Erarbeitung von zuverlässigen und reproduzierbaren Versuchsbedingungen am Menschen und am Tier. Eine umfassende Zusammenstellung der bisher bekannten Methoden sowie die Beschreibung einer verbesserten Methode an der Ratte wird beschrieben in der Dissertation von Ennen 1981, am Institut für Pharmakologie, Toxikologie und Pharmazie der Tierärtzlichen Hochschule Hannover unter Leitung von Prof. Dr. K. Kaemmerer (Methodenbeitrag zur Bestimmung von Blutungszeit und Blutverlust bei Leberparenchymblutungen kleiner Versuchstiere). Im Rahmen dieser Untersuchungen wurden auch verschiedene bekannte Hämostasesysteme vergleichend untersucht. Zu den untersuchten Produkten gehörte auch das Hämostypticum Revici, welches von der Anmelderin seit Jahren vertrieben wird. […] Das Hämostypticum Revici enthält neben geringen Mengen von Zitronensäure, Wasserstoffperoxid und n-Butanol. Da bei der Anwendung des Hämostypticums Revici immer wieder schwankende und nicht immer reproduzierbare Ergebnisse beobachtet wurden, wurden eingehende Untersuchungen über die Wirksamkeit aller drei Komponenten und Gemische derselben auf ihre Wirksamkeit hin untersucht. Dabei dienten als Modelle in erster Linie die bereits von Ennen entwickelten Tiermodelle der Ratten sowie ähnliche Versuche an der Schweineleber. Die Untersuchungen wurden zusätzlich ausgedehnt auf mögliche Metaboliten und Zersetzungsprodukte der Zitronensäure, nämlich Cis-Aconitsäure, Acetondicarbonsäure und Itakonsäure.
Die Wirksamkeit der Substanzen wurde sowohl oral als auch IV getestet mit Standardlösungen suspendiert in 0,9%-iger Kochsalzlösung bei Ratten nach Ennen (1981). Gemessen wurden Blutungszeit und Blutverlust in % der Abnahme. Tributylcitrat ergab eine Abnahme der Blutungszeit von 27% und eine Abnahme des Blutverlustes von 44%. Die entsprechenden Werte für Trihexylcitrat lagen bei 20 bzw. 24%. Die Werte für Aconit-tributylester bei 22 bzw. 16% und für Tricarballylsäure-tributylester bei 29 bzw. 8%.

[3] = Toxicity of the new esters (test not described); conditions: qualitative
[4] = Acute toxicity (LD50, oral tolerance) in the rat; assay type: in vivo; conditions: in vivo, applicant's own experiments
Method: (§1) Hierbei ist zu beachten, daß bei der Ratte als maximale Volumenbelastung 20 ml/kg gelten.

[5] = system: Ratte; assay: Acute toxicity (LD50, oral tolerance) in the rat; assay type: in vivo
Method: as §1

[6] = system: Ratte; conditions: rat, in vivo, iv
Method: as §1

[7] = system: Ratte; conditions: rat; Merck Index, 10th ed., no. 1513; cited from earlier work
[8] = system: Schweine; assay: Pig experiments: circulatory effect; assay type: in vivo; conditions: pigs; amount of n-Butanol present in Hämostypticum Revici, given alone
Description: Bei den Schweineversuchen hat sich beispielsweise gezeigt, daß die im Hämostypticum Revici vorhandene Menge n-Butanol für sich allein schon zu Kreislaufdepressionen führt. […] Die Wirksamkeit kann daher nicht dadurch erklärt werden, daß das TBC im Körper zu Zitronensäure und n-Butanol gespalten wird.

| Compound | hämostyptische Wirksamkeit [1] | Abnahme der Blutungszeit [2] | Abnahme des Blutverlustes [2] | Toxizität [3] | further results |
| --- | --- | --- | --- | --- | --- |
| O=C(O)CC(=O)CC(=O)O [Acetondicarbonsäure] | praktisch wirkungslos | – | – | – | – |
| CCCCOC(=O)C=C(CC(=O)OCCCC)C(=O)OCCCC [Aconit-tributylester] | durchaus interessante und für die Praxis brauchbare Wirkung | 22% | 16% | niedriger Toxizität | – |
| O=C(O)/C=C(/CC(=O)O)C(=O)O [Cis-Aconitsäure] | praktisch wirkungslos | – | – | – | – |
| C=C(CC(=O)O)C(=O)O [Itakonsäure] | praktisch wirkungslos | – | – | – | – |
| CCCCOC(=O)CC(O)(CC(=O)OCCCC)C(=O)OCCCC [TBC, Tri-n-butylcitrat] | – | 27% | 44% | – | LD50 [4]: 20800 mg/kg; akute oder klinische manifeste Veränderungen ([5]; oral 10 ml/kg (printed as 10,4 mg/kg)): keinerlei akute oder klinische manifeste Veränderungen; akute oder klinische manifeste Veränderungen ([5]; oral 20 ml/kg (printed as 20,8 mg/kg)): keinerlei akute oder klinische manifeste Veränderungen; spontaner Exitus nach Infusion [6]: 19,4 ml/kg |
| CCCCOC(=O)CC(CC(=O)OCCCC)C(=O)OCCCC [Tricarballylsäure-tributylester] | durchaus interessante und für die Praxis brauchbare Wirkung | 29% | 8% | niedriger Toxizität | – |
| CCCCCCOC(=O)CC(O)(CC(=O)OCCCCCC)C(=O)OCCCCCC [Trihexylcitrat] | – | 20% | 24% | niedriger Toxizität | – |
| O=C(O)CC(O)(CC(=O)O)C(=O)O [Zitronensäure] | praktisch wirkungslos | – | – | – | – |
| CCCCO [n-Butanol] | eine gewisse hämostyptische Wirksamkeit; also recorded: einen gewissen Effekt | – | – | – | LD50 [7]: 4,36 g/kg; Kreislaufwirkung [8]: Kreislaufdepressionen |
| Wasserstoffperoxid [H202] | einen gewissen Effekt | – | – | – | – |
